Active and inactive are the calls of the source. For most assays here, no stated cut-off is given here; in the data, actives have a measured Kd and inactives only a lower limit.
Biological target: Calcium/calmodulin-dependent protein kinase type II subunit delta (Homo sapiens, UniProt Q13557)
Sequence (Q13557 whole entry): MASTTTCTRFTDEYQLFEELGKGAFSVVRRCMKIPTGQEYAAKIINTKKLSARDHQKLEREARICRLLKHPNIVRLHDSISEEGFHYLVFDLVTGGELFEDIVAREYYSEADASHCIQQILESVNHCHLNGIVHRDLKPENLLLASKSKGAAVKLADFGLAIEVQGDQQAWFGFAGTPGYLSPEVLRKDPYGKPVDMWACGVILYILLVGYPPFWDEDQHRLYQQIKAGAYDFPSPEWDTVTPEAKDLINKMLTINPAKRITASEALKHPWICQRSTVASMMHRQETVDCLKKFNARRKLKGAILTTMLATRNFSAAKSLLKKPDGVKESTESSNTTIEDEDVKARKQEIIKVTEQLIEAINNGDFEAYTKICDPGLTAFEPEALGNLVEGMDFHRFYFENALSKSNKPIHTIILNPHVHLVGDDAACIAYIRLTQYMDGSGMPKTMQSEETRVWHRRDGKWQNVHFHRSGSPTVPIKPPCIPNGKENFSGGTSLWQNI

Row | Structure (SMILES) | Kd
1 | CCCS(=O)(=O)Nc1ccc(F)c(C(=O)c2c[nH]c3ncc(-c4ccc(Cl)cc4)cc23)c1F [VEMURAFENIB] | > 30 µM (inactive)
2 | CC[C@@H]1C(=O)N(C)c2cnc(Nc3ccc(C(=O)N[C@H]4CC[C@H](N5CCN(CC6CC6)CC5)CC4)cc3OC)nc2N1C(C)C [VOLASERTIB] | > 30 µM (inactive)
3 | CCn1c(=O)c(-c2cc[nH]n2)cc2c(C)nc(N)nc21 [VOXTALISIB] | > 30 µM (inactive)
4 | O=C(Nc1ccc(-c2ccnc(Nc3ccc(N4CCOCC4)cc3)n2)cc1)C1CCCN1 (stereo unspecified) [XL-019] | > 30 µM (inactive)

Biological target: T1, Cysteine--tRNA ligase, cytoplasmic (Homo sapiens, UniProt P49589)
T1 sequence (P49589 whole entry): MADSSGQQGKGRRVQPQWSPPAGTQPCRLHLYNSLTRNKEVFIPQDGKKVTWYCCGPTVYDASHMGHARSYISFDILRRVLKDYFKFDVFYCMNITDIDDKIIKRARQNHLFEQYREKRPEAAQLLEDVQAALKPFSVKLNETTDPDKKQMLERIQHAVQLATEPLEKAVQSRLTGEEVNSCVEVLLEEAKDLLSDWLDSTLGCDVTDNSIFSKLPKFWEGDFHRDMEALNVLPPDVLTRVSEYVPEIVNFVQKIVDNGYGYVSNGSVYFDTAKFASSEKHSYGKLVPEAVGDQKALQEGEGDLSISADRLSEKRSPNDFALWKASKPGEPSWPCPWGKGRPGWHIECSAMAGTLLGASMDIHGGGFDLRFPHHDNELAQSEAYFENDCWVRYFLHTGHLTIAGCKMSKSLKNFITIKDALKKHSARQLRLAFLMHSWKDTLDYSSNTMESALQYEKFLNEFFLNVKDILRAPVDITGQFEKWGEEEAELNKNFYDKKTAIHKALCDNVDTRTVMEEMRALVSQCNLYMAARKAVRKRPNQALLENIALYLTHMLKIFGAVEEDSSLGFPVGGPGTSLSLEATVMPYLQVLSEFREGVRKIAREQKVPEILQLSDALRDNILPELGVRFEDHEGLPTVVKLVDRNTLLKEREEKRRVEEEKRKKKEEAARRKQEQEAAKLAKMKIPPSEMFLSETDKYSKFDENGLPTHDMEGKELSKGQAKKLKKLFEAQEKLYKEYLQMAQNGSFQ

Row | Structure (SMILES) | Kd
5 | CCCS(=O)(=O)Nc1ccc(F)c(C(=O)c2c[nH]c3ncc(-c4ccc(Cl)cc4)cc23)c1F [VEMURAFENIB] | > 30 µM (inactive)
6 | CC[C@@H]1C(=O)N(C)c2cnc(Nc3ccc(C(=O)N[C@H]4CC[C@H](N5CCN(CC6CC6)CC5)CC4)cc3OC)nc2N1C(C)C [VOLASERTIB] | > 30 µM (inactive)
7 | CCn1c(=O)c(-c2cc[nH]n2)cc2c(C)nc(N)nc21 [VOXTALISIB] | > 30 µM (inactive)
8 | O=C(Nc1ccc(-c2ccnc(Nc3ccc(N4CCOCC4)cc3)n2)cc1)C1CCCN1 (stereo unspecified) [XL-019] | > 30 µM (inactive)

Biological target: Casein kinase I isoform alpha (Homo sapiens, UniProt P48729)
Sequence (P48729 whole entry, canonical isoform): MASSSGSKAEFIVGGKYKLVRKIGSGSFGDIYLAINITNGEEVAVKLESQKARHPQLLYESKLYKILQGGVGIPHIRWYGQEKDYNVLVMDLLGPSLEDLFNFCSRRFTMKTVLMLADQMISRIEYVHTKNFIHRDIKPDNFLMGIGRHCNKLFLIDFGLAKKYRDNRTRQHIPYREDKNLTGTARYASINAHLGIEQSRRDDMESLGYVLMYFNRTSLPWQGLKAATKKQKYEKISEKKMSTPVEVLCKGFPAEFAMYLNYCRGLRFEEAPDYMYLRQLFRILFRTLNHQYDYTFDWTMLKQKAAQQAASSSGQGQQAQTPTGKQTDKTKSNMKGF

Row | Structure (SMILES) | Kd
9 | CCCS(=O)(=O)Nc1ccc(F)c(C(=O)c2c[nH]c3ncc(-c4ccc(Cl)cc4)cc23)c1F [VEMURAFENIB] | > 30 µM (inactive)
10 | CC[C@@H]1C(=O)N(C)c2cnc(Nc3ccc(C(=O)N[C@H]4CC[C@H](N5CCN(CC6CC6)CC5)CC4)cc3OC)nc2N1C(C)C [VOLASERTIB] | > 30 µM (inactive)
11 | CCn1c(=O)c(-c2cc[nH]n2)cc2c(C)nc(N)nc21 [VOXTALISIB] | > 30 µM (inactive)
12 | O=C(Nc1ccc(-c2ccnc(Nc3ccc(N4CCOCC4)cc3)n2)cc1)C1CCCN1 (stereo unspecified) [XL-019] | > 30 µM (inactive)

Biological target: Casein kinase I isoform gamma-1 (Homo sapiens, UniProt Q9HCP0)
Sequence (Q9HCP0 whole entry, canonical isoform): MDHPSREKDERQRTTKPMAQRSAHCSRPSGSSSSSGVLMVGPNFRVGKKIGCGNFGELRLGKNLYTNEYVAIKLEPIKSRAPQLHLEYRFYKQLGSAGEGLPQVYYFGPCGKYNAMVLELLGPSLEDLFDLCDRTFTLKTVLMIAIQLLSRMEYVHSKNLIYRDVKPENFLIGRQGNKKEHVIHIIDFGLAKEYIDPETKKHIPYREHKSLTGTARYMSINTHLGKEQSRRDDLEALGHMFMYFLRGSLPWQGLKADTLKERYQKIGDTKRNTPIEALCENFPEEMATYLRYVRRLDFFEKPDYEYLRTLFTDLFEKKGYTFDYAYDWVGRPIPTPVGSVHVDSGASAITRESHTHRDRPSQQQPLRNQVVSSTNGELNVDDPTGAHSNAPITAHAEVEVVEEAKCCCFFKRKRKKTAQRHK

Row | Structure (SMILES) | Kd
13 | CCCS(=O)(=O)Nc1ccc(F)c(C(=O)c2c[nH]c3ncc(-c4ccc(Cl)cc4)cc23)c1F [VEMURAFENIB] | > 30 µM (inactive)
14 | CC[C@@H]1C(=O)N(C)c2cnc(Nc3ccc(C(=O)N[C@H]4CC[C@H](N5CCN(CC6CC6)CC5)CC4)cc3OC)nc2N1C(C)C [VOLASERTIB] | > 30 µM (inactive)
15 | CCn1c(=O)c(-c2cc[nH]n2)cc2c(C)nc(N)nc21 [VOXTALISIB] | > 30 µM (inactive)
16 | O=C(Nc1ccc(-c2ccnc(Nc3ccc(N4CCOCC4)cc3)n2)cc1)C1CCCN1 (stereo unspecified) [XL-019] | > 30 µM (inactive)

Biological target: T2, dCTP pyrophosphatase 1 (Homo sapiens, UniProt Q9H773)
T2 sequence (Q9H773 whole entry): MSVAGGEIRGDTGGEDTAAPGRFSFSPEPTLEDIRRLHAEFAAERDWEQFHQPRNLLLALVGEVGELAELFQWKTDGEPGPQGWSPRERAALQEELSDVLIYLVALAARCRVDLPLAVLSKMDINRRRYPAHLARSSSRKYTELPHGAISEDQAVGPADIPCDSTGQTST

Row | Structure (SMILES) | Kd
17 | CCCS(=O)(=O)Nc1ccc(F)c(C(=O)c2c[nH]c3ncc(-c4ccc(Cl)cc4)cc23)c1F [VEMURAFENIB] | > 30 µM (inactive)
18 | CC[C@@H]1C(=O)N(C)c2cnc(Nc3ccc(C(=O)N[C@H]4CC[C@H](N5CCN(CC6CC6)CC5)CC4)cc3OC)nc2N1C(C)C [VOLASERTIB] | > 30 µM (inactive)
19 | CCn1c(=O)c(-c2cc[nH]n2)cc2c(C)nc(N)nc21 [VOXTALISIB] | > 30 µM (inactive)
20 | O=C(Nc1ccc(-c2ccnc(Nc3ccc(N4CCOCC4)cc3)n2)cc1)C1CCCN1 (stereo unspecified) [XL-019] | > 30 µM (inactive)

Biological target: T3, Discoidin domain-containing receptor 2 (Homo sapiens, UniProt Q16832)
T3 sequence (Q16832 whole entry): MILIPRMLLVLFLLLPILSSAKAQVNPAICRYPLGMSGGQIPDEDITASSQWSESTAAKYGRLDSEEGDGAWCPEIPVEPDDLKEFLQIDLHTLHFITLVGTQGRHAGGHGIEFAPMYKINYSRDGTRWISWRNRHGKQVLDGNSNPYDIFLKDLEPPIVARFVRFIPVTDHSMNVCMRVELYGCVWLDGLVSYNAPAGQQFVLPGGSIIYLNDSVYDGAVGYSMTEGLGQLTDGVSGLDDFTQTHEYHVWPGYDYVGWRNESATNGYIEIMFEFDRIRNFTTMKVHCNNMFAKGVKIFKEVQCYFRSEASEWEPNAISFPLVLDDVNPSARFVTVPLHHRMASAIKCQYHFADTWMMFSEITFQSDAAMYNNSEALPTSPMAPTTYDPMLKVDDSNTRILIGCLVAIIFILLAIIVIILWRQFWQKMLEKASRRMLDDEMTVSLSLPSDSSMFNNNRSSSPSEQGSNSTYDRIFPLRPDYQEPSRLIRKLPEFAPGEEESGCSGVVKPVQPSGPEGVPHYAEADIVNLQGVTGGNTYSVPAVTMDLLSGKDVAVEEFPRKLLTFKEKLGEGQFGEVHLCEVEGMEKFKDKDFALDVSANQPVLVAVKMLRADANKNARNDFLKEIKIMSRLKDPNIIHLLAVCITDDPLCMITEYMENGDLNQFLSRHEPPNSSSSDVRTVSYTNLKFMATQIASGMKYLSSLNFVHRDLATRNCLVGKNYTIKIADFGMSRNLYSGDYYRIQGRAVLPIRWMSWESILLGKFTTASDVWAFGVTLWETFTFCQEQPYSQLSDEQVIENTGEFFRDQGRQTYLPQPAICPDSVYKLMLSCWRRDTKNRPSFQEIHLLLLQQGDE

Row | Structure (SMILES) | Kd
21 | CCCS(=O)(=O)Nc1ccc(F)c(C(=O)c2c[nH]c3ncc(-c4ccc(Cl)cc4)cc23)c1F [VEMURAFENIB] | > 30 µM (inactive)
22 | CC[C@@H]1C(=O)N(C)c2cnc(Nc3ccc(C(=O)N[C@H]4CC[C@H](N5CCN(CC6CC6)CC5)CC4)cc3OC)nc2N1C(C)C [VOLASERTIB] | > 30 µM (inactive)
23 | CCn1c(=O)c(-c2cc[nH]n2)cc2c(C)nc(N)nc21 [VOXTALISIB] | > 30 µM (inactive)
24 | O=C(Nc1ccc(-c2ccnc(Nc3ccc(N4CCOCC4)cc3)n2)cc1)C1CCCN1 (stereo unspecified) [XL-019] | > 30 µM (inactive)

Biological target: Glycogen synthase kinase-3 alpha (Homo sapiens, UniProt P49840)
Sequence (P49840 whole entry): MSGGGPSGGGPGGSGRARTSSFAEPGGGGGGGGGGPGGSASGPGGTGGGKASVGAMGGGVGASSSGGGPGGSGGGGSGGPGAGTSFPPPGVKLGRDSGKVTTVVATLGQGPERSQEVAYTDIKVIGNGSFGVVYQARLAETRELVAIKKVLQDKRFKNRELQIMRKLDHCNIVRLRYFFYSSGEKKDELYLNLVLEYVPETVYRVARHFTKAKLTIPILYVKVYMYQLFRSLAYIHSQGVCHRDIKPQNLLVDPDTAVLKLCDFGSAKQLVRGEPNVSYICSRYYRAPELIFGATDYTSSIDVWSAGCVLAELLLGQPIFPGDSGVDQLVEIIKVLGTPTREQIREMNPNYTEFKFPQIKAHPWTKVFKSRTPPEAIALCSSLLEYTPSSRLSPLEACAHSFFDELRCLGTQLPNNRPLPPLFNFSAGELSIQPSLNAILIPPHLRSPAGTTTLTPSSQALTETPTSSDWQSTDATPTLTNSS

Row | Structure (SMILES) | Kd
25 | CCCS(=O)(=O)Nc1ccc(F)c(C(=O)c2c[nH]c3ncc(-c4ccc(Cl)cc4)cc23)c1F [VEMURAFENIB] | > 30 µM (inactive)
26 | CC[C@@H]1C(=O)N(C)c2cnc(Nc3ccc(C(=O)N[C@H]4CC[C@H](N5CCN(CC6CC6)CC5)CC4)cc3OC)nc2N1C(C)C [VOLASERTIB] | > 30 µM (inactive)
27 | CCn1c(=O)c(-c2cc[nH]n2)cc2c(C)nc(N)nc21 [VOXTALISIB] | > 30 µM (inactive)
28 | O=C(Nc1ccc(-c2ccnc(Nc3ccc(N4CCOCC4)cc3)n2)cc1)C1CCCN1 (stereo unspecified) [XL-019] | > 30 µM (inactive)

Biological target: Ribosomal protein S6 kinase alpha-6 (Homo sapiens, UniProt Q9UK32)
Sequence (Q9UK32 whole entry): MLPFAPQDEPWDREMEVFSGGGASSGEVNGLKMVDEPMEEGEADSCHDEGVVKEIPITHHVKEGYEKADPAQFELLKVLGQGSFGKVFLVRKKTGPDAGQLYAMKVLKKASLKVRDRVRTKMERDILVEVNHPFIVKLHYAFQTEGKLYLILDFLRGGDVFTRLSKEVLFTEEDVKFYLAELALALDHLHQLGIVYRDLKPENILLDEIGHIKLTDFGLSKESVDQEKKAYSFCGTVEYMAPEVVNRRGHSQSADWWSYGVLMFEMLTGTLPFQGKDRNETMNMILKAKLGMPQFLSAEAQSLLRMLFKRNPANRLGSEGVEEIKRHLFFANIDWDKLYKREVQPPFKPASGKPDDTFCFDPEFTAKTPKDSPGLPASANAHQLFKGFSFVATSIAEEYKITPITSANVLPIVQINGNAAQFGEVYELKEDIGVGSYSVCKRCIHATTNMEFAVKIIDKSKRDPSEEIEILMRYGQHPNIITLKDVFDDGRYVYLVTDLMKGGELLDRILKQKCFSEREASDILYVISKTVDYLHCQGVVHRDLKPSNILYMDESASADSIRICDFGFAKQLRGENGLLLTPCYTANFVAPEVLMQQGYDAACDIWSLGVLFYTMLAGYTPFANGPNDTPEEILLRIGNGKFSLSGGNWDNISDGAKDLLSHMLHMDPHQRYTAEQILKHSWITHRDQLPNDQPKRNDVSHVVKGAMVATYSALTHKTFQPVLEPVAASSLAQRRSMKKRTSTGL

Row | Structure (SMILES) | Kd
29 | CCCS(=O)(=O)Nc1ccc(F)c(C(=O)c2c[nH]c3ncc(-c4ccc(Cl)cc4)cc23)c1F [VEMURAFENIB] | > 30 µM (inactive)
30 | CC[C@@H]1C(=O)N(C)c2cnc(Nc3ccc(C(=O)N[C@H]4CC[C@H](N5CCN(CC6CC6)CC5)CC4)cc3OC)nc2N1C(C)C [VOLASERTIB] | > 30 µM (inactive)
31 | CCn1c(=O)c(-c2cc[nH]n2)cc2c(C)nc(N)nc21 [VOXTALISIB] | > 30 µM (inactive)
32 | O=C(Nc1ccc(-c2ccnc(Nc3ccc(N4CCOCC4)cc3)n2)cc1)C1CCCN1 (stereo unspecified) [XL-019] | > 30 µM (inactive)

Biological target: T4, Serine/threonine-protein kinase TAO3 (Homo sapiens, UniProt Q9H2K8)
T4 sequence (Q9H2K8 whole entry): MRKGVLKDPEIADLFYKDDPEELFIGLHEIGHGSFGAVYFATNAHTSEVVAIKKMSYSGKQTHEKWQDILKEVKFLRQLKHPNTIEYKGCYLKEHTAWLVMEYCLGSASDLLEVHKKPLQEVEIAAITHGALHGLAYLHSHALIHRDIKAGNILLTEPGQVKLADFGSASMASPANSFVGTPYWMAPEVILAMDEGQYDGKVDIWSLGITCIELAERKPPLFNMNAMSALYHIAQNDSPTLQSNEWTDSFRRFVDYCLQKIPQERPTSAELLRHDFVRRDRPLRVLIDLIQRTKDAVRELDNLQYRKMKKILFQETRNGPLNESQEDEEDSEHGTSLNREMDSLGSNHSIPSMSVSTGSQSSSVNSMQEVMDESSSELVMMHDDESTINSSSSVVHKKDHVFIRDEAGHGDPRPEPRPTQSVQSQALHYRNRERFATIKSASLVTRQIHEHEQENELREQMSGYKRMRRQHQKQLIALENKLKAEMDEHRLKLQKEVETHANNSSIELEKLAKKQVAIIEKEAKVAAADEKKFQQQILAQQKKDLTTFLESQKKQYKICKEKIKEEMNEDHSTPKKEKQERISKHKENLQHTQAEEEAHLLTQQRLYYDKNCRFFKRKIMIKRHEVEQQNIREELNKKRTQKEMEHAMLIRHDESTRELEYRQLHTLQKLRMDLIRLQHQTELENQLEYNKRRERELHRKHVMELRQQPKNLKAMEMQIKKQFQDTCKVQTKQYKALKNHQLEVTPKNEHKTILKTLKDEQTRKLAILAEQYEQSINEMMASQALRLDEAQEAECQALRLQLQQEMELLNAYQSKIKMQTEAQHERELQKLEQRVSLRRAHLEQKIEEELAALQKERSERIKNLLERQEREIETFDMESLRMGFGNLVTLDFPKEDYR

Row | Structure (SMILES) | Kd
33 | CCCS(=O)(=O)Nc1ccc(F)c(C(=O)c2c[nH]c3ncc(-c4ccc(Cl)cc4)cc23)c1F [VEMURAFENIB] | > 30 µM (inactive)
34 | CC[C@@H]1C(=O)N(C)c2cnc(Nc3ccc(C(=O)N[C@H]4CC[C@H](N5CCN(CC6CC6)CC5)CC4)cc3OC)nc2N1C(C)C [VOLASERTIB] | > 30 µM (inactive)
35 | CCn1c(=O)c(-c2cc[nH]n2)cc2c(C)nc(N)nc21 [VOXTALISIB] | > 30 µM (inactive)
36 | O=C(Nc1ccc(-c2ccnc(Nc3ccc(N4CCOCC4)cc3)n2)cc1)C1CCCN1 (stereo unspecified) [XL-019] | > 30 µM (inactive)

From ChEMBL document CHEMBL3991601, “The target landscape of clinical kinase drugs” (Science, 2017)
